These results are taken from paper PMC5413024, “Mechanistic insights into the more potent effect of KP-54 compared to KP-10 in vivo” (PLoS ONE, 2017).

Data set [1] deals with plasma LH levels. Put plainly: Study 1: plasma LH after a single i.p. injection of kisspeptin. It counts as in vivo, mouse. The note with it: male mice, single i.p. injection of 1 nmol, ELISA, mean ± s.e.m. On the procedure:
Male mice received a single intraperitoneal (i.p.) injection of 100 μl of PBS (vehicle control; 137 mM NaCl, 2.7 mM KCl, 10 mM Na2HPO4, 1.8mM KH2PO4, pH 7.4), KP-10 (1 nmol), or KP-54 (1 nmol) in PBS and LH levels in the plasma measured at 10 min and 2 h after treatment to compare early and late responses points. We chose the 10 min point as some studies have shown that KP-10 injection results in maximal LH secretion after 10–15 min [16, 18]. 100 μl of blood was collected from a tail vein 10 min after injection, mixed with 5 μl EDTA and centrifuged at 10,000 x g for 10 min at 4°C. The plasma supernatant was stored at -20°C until assayed. Two hours after injection, mice were deeply anaesthetized with pentobarbital (100mg/kg i.p.), ~300 μl of blood was rapidly collected from the vena cava and processed as described above. Finally the mice were perfused intracardially with 20 ml of 4% paraformaldehyde in PBS. Brains were removed and incubated for 1 h in the same fixative as for perfusion and placed in PBS for sectioning and immunohistochemistry processing.
3–5 month old wild-type (129S6/SvEv) male mice were used in this study. The mice were housed in open cages on a 12 hour light cycle (lights on at 0700 h) at a controlled temperature (22°C), and were provided with food and water ad libitum. […]
On the technique in general: In an ELISA, binding on a coated surface is turned into a signal by an enzyme label.

The subject of data set [2] is plasma LH levels. Put plainly: Study 2: plasma LH after a high dose or multiple i.p. injections of KP-10. It counts as in vivo, mouse. As to conditions: male mice, single i.p. injection of 1 nmol, mean ± s.e.m., n = 10. On the procedure: Male mice received a single intraperitoneal (i.p.) injection of 100 μl of PBS (vehicle control), KP-10 (1 nmol), KP-10 (10 nmol), KP-54 (1 nmol) or a series of six i.p. injections (every 10 minutes over one hour) of KP-10 (1 nmol) to extend the duration of action of KP-10. 100 μl of blood was collected from a tail vein 10 min after the final injection and the mice were killed 2 hours after treatment by an injection of pentobarbital (100mg/kg i.p.). Blood was collected from the vena cava, mixed with 5 μl EDTA, centrifuged at 10,000 x g for 10 min at 4°C to obtain the plasma fraction, and stored at -20°C until assayed.
3–5 month old wild-type (129S6/SvEv) male mice were used in this study. The mice were housed in open cages on a 12 hour light cycle (lights on at 0700 h) at a controlled temperature (22°C), and were provided with food and water ad libitum. All experiments were performed under the authority of a United Kingdom Home Office Project License and were approved by a Cambridge Animal Ethics Committee.
Plasma LH was assayed using a commercial ELISA kit (LH Ultrasensitive Rodent ELISA, Endocrine Technologies Cat Number ERK 7010+) with a sensitivity of 0.3 ng/ml and 7% intra-assay and 10% inter-assay coefficients of variation. […]

The conditions of data set [3]: men / humans; ref [5], [30] (KP-10), ref [5] (KP-54); cited from earlier work. An excerpt:
It should be noted, however that the RIA used to measure KP-54 may also detect shorter breakdown products of this protein that might be biologically inert. It is likely that the lack of GnRH neuronal activation and sustained LH release by KP-10 is mainly due to its instability. It is noteworthy that we failed ...

For the compound `CC[C@H](C)[C@H](NC(=O)[C@H](CCC(N)=O)NC(=O)[C@H](CCCNC(=N)N)NC(=O)[C@H](CO)NC(=O)[C@H](Cc1c[nH]cn1)NC(=O)[C@@H]1CCCN1C(=O)[C@H](C)NC(=O)[C@H](CO)NC(=O)[C@H](CC(C)C)NC(=O)CNC(=O)[C@@H]1CCCN1C(=O)[C@H](CCC(N)=O)NC(=O)[C@H](CCC(N)=O)NC(=O)[C@H](CCCNC(=N)N)NC(=O)[C@H](CO)NC(=O)CNC(=O)[C@H](CO)NC(=O)[C@H](CO)NC(=O)[C@H](CCC(=O)O)NC(=O)[C@@H]1CCCN1C(=O)[C@@H]1CCCN1C(=O)[C@@H]1CCCN1C(=O)[C@H](CO)NC(=O)[C@H](CC(C)C)NC(=O)[C@H](CO)NC(=O)[C@@H](NC(=O)CN)[C@@H](C)O)C(=O)N1CCC[C@H]1C(=O)N[C@@H](C)C(=O)N1CCC[C@H]1C(=O)N[C@@H](CCC(N)=O)C(=O)NCC(=O)N[C@@H](C)C(=O)N[C@H](C(=O)N[C@@H](CC(C)C)C(=O)N[C@H](C(=O)N[C@@H](CCC(N)=O)C(=O)N[C@@H](CCCNC(=N)N)C(=O)N[C@@H](CCC(=O)O)C(=O)N[C@@H](CCCCN)C(=O)N[C@@H](CC(=O)O)C(=O)N[C@@H](CC(C)C)C(=O)N1CCC[C@H]1C(=O)N[C@@H](CC(N)=O)C(=O)N[C@@H](Cc1ccc(O)cc1)C(=O)N[C@@H](CC(N)=O)C(=O)N[C@@H](Cc1c[nH]c2ccccc12)C(=O)N[C@@H](CC(N)=O)C(=O)N[C@@H](CO)C(=O)N[C@@H](Cc1ccccc1)C(=O)NCC(=O)N[C@@H](CC(C)C)C(=O)N[C@@H](CCCNC(=N)N)C(=O)N[C@@H](Cc1ccccc1)C(N)=O)C(C)C)C(C)C` [KP-54], the “plasma LH level 10 min post-injection” value with plasma LH levels [1] (tail vein blood, n = 8, PBS 0.06 ± 0.04) was 5.70 ± 0.69 ng/mL. Besides, in the data set with plasma LH levels [1] (vena cava blood, n = 8), the “plasma LH level 2 hours post-injection” value was found to be 6.42 ± 1.74 ng/mL. Also, the “plasma LH level at 2 hrs” value with plasma LH levels [2] was 9.62 ± 1.67 ng/mL. Besides, in data set [3], the “half-life in the blood stream in humans” value was 28 min.
